Results: patent publication EP0451422A1, “Pharmaceutically active fluoromethyltyrosine compounds” (MERRELL DOW PHARMACEUTICALS INC., priority 1990, dated 1991)

Biological target: T1, tyrosine hydroxylase (Mus musculus, UniProt P24529)
T1 construct: from tissue; host or cells: living mice
Experiment: In vivo inhibition of tyrosine hydroxylase (cortical norepinephrine levels in mice, HPLC with electrochemical detection)
Conditions: mice injected intraperitoneally; cerebral cortices removed six hours later; norepinephrine in tissue; dose not given; control 198.2 +/- 18.4 ng/g
Procedure: The tyrosine hydroxylase inhibitory properties of the compounds of this invention can readily be determined by standard and well known procedures. For example, determination of tyrosine hydroxylase inhibition is exemplified by a procedure wherein mice are injected intraperitoneally with a test compound, and six hours later the mice are sacrificed, the cerebral cortices removed and frozen on dry ice. The levels of norepinephrine in the tissue are measured by HPLC with electrochemical detection, according to the process of Dudley, et al, J. Pharmacol. Exp. Ther., 217, 834-840 (1981). Reduction in cortical norepinephrine levels indicates effective, in vivo inhibition of tyrosine hydroxylase. The following Table I illustrates the decreased levels of norepinephrine after treatment with a compound of this invention (2-fluoromethyl tyrosine) in relation to levels of norepinephrine present after treatment with a known inhibitor (alpha-methyl-p-tyrosine), and as compared to the amount of norepinephrine produced without treatment with a test compound (control).

T1 sequence (P24529 whole entry): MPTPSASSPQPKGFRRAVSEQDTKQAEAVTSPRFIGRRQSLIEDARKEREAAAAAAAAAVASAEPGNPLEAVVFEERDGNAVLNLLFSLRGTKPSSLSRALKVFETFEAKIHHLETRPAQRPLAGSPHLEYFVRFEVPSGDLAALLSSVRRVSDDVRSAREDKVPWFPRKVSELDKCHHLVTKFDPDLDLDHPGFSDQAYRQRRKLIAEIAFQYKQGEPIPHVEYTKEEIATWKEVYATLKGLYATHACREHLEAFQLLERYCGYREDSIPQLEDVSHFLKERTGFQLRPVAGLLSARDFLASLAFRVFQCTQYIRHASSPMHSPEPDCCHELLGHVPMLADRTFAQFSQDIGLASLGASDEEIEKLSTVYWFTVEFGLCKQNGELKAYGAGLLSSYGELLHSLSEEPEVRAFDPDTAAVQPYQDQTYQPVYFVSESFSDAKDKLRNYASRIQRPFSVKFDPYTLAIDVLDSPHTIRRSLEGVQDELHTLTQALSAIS

Structure (SMILES) | NOREPINEPHRINE [ng/g]
N[C@@H](Cc1ccc(O)cc1CF)C(=O)O [2-fluoromethyl-tyrosine, 2-Fluoromethyltyrosine] | 124.9 ± 11.4
CC(N)(Cc1ccc(O)cc1)C(=O)O (stereo not drawn) [α-methyl-p-tyrosine] | 115.7 ± 18.6
